Assay results taken from publication PMC7506137, “Selective Phosphodiesterase 1 Inhibitor BTTQ Reduces Blood Pressure in Spontaneously Hypertensive and Dahl Salt Sensitive Rats: Role of Peripheral Vasodilation” (Frontiers in Physiology, 2020).
Several values for one entry are separate records, joined by “and”; a condition that tells them apart may be missing. Equal entries are not always repeated. Where two headings read alike, the source gives them in different places.

Test: Plasma exposure (dried blood spot) after single oral dose
Format: in vivo
Conditions: rat; for concentration at 5 h / concentration at 6 h / concentration at 24 h: Sprague Dawley, po, 3 mg/kg, oral 3 mg/kg; for concentration at 24 h / Unbound Concentration, individual animals / Concentration, individual animals: 24 h
Procedure: Male Sprague Dawley rats at 6 to 7 weeks were dosed orally by p.o. gavage with different doses of BTTQ formulated in 1% hydroxyethlycellulose (Dow Corning, Midland, MI, United States) (w/v), 0.25% polysorbate 80 (Sigma-Aldrich, St. Louis, MO, United States) (v/v), and 0.05% antifoam (v/v; Dow Corning, Midland, MI, United States) in purified water. Following dosing, ear temperature was measured by using a k-type thermocouple probe digital thermometer (Cole Parmer) every hour for 6 h and then at 24 h. Blood samples for plasma exposure measurement were obtained at the same time. Blood was collected via a tail snip directly into a 20-μL EDTA-coated capillary and immediately spotted onto a Whatman DMPK-C DBS card (GE Healthcare Bio-Sciences). Tail snips were performed by removing approximately 1 mm of the tail by using a scalpel. Blood flow was initiated by gentle squeezing of the tail. No analgesia or anesthesia was used during blood collections. A single sample and spot were collected per time point. The DBS cards were allowed to dry for approximately 2 h at room temperature, after which the cards were placed in a zip-top bag, stored, and shipped at ambient temperature.

concentration at 5 h (male, whole blood (dried blood spot), 5 h, dried blood spot, read-out: Concentration, Mean): 2170 nM | concentration at 5 h (male, whole blood (dried blood spot), 5 h, dried blood spot, read-out: Concentration, individual animals): 2680 nM | concentration at 6 h (male, whole blood (dried blood spot), 6 h, FU 0.053, read-out: Unbound Concentration, Mean): 93.5 nM | concentration at 6 h (male, whole blood (dried blood spot), 6 h, FU 0.053, read-out: Unbound Concentration, individual animals): 98.1 nM | concentration at 6 h (male, whole blood (dried blood spot), 6 h, dried blood spot, read-out: Concentration, Mean): 1760 nM | concentration at 6 h (male, whole blood (dried blood spot), 6 h, dried blood spot, read-out: Concentration, individual animals): 1850 nM | concentration at 24 h (male, whole blood (dried blood spot), FU 0.053, read-out: Unbound Concentration, Mean): 5 nM | concentration at 24 h (male, whole blood (dried blood spot), dried blood spot, read-out: Concentration, Mean): 94.2 nM | half-life (male, whole blood (dried blood spot), after oral administration, Sprague Dawley rats): ~240 min | concentration at 4 h (oral 0.03 mg/kg, 5 h, FU 0.053, 0.03 mg/kg, read-out: Unbound Concentration, individual animals): 1.35 nM and 1.39 nM (2×) and 1.51 nM | Unbound Concentration, individual animals (oral 0.03 mg/kg, FU 0.053): BQL | Concentration, individual animals (oral 0.03 mg/kg, dried blood spot): BQL | concentration at 4 h (oral 0.1 mg/kg, 1 h, dried blood spot, 0.1 mg/kg, read-out: Concentration, individual animals): 229 nM and 172 nM and 180 nM and 175 nM | concentration at 4 h (oral 0.1 mg/kg, 2 h, dried blood spot, 0.1 mg/kg, read-out: Concentration, individual animals): 193 nM and 190 nM and 168 nM and 174 nM | concentration at 4 h (oral 0.1 mg/kg, 3 h, dried blood spot, 0.1 mg/kg, read-out: Concentration, individual animals): 169 nM and 187 nM and 144 nM and 179 nM | concentration at 4 h (oral 0.1 mg/kg, 4 h, dried blood spot, 0.1 mg/kg, read-out: Concentration, individual animals): 133 nM and 136 nM and 88.1 nM and 146 nM | Unbound Concentration, individual animals (oral 0.1 mg/kg, FU 0.053, 0.1 mg/kg): BQL | Concentration, individual animals (oral 0.1 mg/kg, dried blood spot, 0.1 mg/kg): BQL | concentration at 4 h (oral 0.3 mg/kg, 1 h, dried blood spot, 0.3 mg/kg, read-out: Concentration, individual animals): 362 nM and 593 nM and 638 nM and 566 nM | concentration at 4 h (oral 0.3 mg/kg, 2 h, FU 0.053, 0.3 mg/kg, read-out: Unbound Concentration, individual animals): 25.4 nM and 27.8 nM and 21 nM and 25 nM | concentration at 4 h (oral 0.3 mg/kg, 2 h, dried blood spot, 0.3 mg/kg, read-out: Concentration, individual animals): 479 nM and 525 nM and 397 nM and 472 nM | concentration at 4 h (oral 0.3 mg/kg, 3 h, dried blood spot, 0.3 mg/kg, read-out: Concentration, individual animals): 280 nM and 328 nM and 323 nM and 363 nM | concentration at 4 h (oral 0.3 mg/kg, 4 h, FU 0.053, 0.3 mg/kg, read-out: Unbound Concentration, individual animals): 12.1 nM (2×) and 11.3 nM and 11.1 nM | concentration at 4 h (oral 0.3 mg/kg, 4 h, dried blood spot, 0.3 mg/kg, read-out: Concentration, individual animals): 229 nM (2×) and 213 nM and 210 nM | concentration at 4 h (oral 0.3 mg/kg, 5 h, FU 0.053, 0.3 mg/kg, read-out: Unbound Concentration, individual animals): 8 nM | Unbound Concentration, individual animals (oral 0.3 mg/kg, FU 0.053): BQL | Concentration, individual animals (oral 0.3 mg/kg, dried blood spot): BQL
Compound: O=c1c2nnc(C3(C4CC4)CC3)n2c2c(n1CC1CC1)CCCC2 [BTTQ, 1-[1,1′-bi(cyclopropyl)-1-yl]-5-(cyclopropylmethyl)-6,7,8,9-tetrahydro[1,2,4]triazolo[4,3-A]quinoxaline-4(5H)-one]
concentration at 4 h (oral 0.03 mg/kg, 5 h, dried blood spot, 0.03 mg/kg, read-out: Concentration, individual animals): 25.4 nM and 26.3 nM and 28.4 nM and 26.2 nM | concentration at 4 h (oral 0.03 mg/kg, 6 h, FU 0.053, 0.03 mg/kg, read-out: Unbound Concentration, individual animals): 1.93 nM and 0.917 nM and 0.906 nM and 0.938 nM and 1.13 nM | concentration at 4 h (oral 0.03 mg/kg, 6 h, dried blood spot, 0.03 mg/kg, read-out: Concentration, individual animals): 36.4 nM and 17.3 nM and 17.1 nM and 17.7 nM and 21.4 nM | concentration at 4 h (oral 0.1 mg/kg, 1 h, FU 0.053, 0.1 mg/kg, read-out: Unbound Concentration, individual animals): 12.1 nM and 9.12 nM and 9.54 nM and 9.28 nM | concentration at 4 h (oral 0.1 mg/kg, 2 h, FU 0.053, 0.1 mg/kg, read-out: Unbound Concentration, individual animals): 10.2 nM and 10.1 nM and 8.9 nM and 9.22 nM | concentration at 4 h (oral 0.1 mg/kg, 3 h, FU 0.053, 0.1 mg/kg, read-out: Unbound Concentration, individual animals): 8.96 nM and 9.91 nM and 7.63 nM and 9.49 nM | concentration at 4 h (oral 0.1 mg/kg, 4 h, FU 0.053, 0.1 mg/kg, read-out: Unbound Concentration, individual animals): 7.05 nM and 7.21 nM and 4.67 nM and 7.74 nM | concentration at 4 h (oral 0.1 mg/kg, 5 h, FU 0.053, 0.1 mg/kg, read-out: Unbound Concentration, individual animals): 5.35 nM and 4.7 nM and 3.91 nM and 5.72 nM | concentration at 4 h (oral 0.1 mg/kg, 5 h, dried blood spot, 0.1 mg/kg, read-out: Concentration, individual animals): 101 nM and 88.7 nM and 73.7 nM and 108 nM | concentration at 4 h (oral 0.1 mg/kg, 6 h, FU 0.053, 0.1 mg/kg, read-out: Unbound Concentration, individual animals): 5.83 nM and 4.21 nM and 3.48 nM and 4.92 nM | concentration at 4 h (oral 0.1 mg/kg, 6 h, dried blood spot, 0.1 mg/kg, read-out: Concentration, individual animals): 110 nM and 79.5 nM and 65.7 nM and 92.8 nM | concentration at 4 h (oral 0.3 mg/kg, 1 h, FU 0.053, 0.3 mg/kg, read-out: Unbound Concentration, individual animals): 19.2 nM and 31.4 nM and 33.8 nM and 30 nM | concentration at 4 h (oral 0.3 mg/kg, 3 h, FU 0.053, 0.3 mg/kg, read-out: Unbound Concentration, individual animals): 14.8 nM and 17.4 nM and 17.1 nM and 19.2 nM
